Legend:
Type in all cases: binding
[1] = biological target: T1, CagFbFP (Q89E variant: LSSFbFP) (Chloroflexus aggregans, UniProt B8GAY9, C85A/Q89E); test: melting curve by flavin fluorescence in real-time PCR cycler; settings: Tm of the complex, not a shift
T1 construct: gene Cagg_3753; C85A background inferred from printed I52V-A85Q and known biology
T1 sequence (B8GAY9 47-153 C85A/Q89E): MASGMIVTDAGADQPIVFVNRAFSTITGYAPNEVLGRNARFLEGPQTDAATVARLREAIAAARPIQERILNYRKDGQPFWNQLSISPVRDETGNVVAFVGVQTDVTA

[2] = biological target: T1, CagFbFP (Q89E variant: LSSFbFP); test: chromophore dissociation constant measurement, details in cited reference; crystal structure of complex
[3] = biological target: T1, CagFbFP (Q89E variant: LSSFbFP); test: melting curve by flavin fluorescence in real-time PCR cycler; settings: Tm of the complex, not a shift; remark: listed apart in the source

Row | SMILES | denaturation temperature [1] | Kd [2] | thermal stability [3]
1 | Cc1cc2nc3c(=O)[nH]c(=O)nc-3n(C[C@H](O)[C@H](O)[C@H](O)COP(=O)(O)O)c2cc1C [FMN, flavin mononucleotide] | 81 °C | 360 ± 50 nM | –
2 | Cc1cc2nc3[nH]c(=O)[nH]c(=O)c3nc2cc1C [LC, lumichrome] | – | 900 ± 300 nM | 58 °C
